As a reminder, the logP is a log measure of how a compound divides between an organic and an aqueous phase. As usually defined, the logD is lipophilicity at a set pH, counting ionised and neutral species. Lower therefore signals a more hydrophilic compound.

Test in the first data set: not given
Details: not given
In the case of `O=c1ccnc2ccccn12`, the logP amounted to 0.3.
In turn, `CCc1cnc2cccc(C)n2c1=O` registered a log partition coefficient (logP) of 1.58.
Still for that read-out and setting: next, `CC1CCCc2nccc(=O)n21` (stereo not given): 0.37; `O=c1ccnc2n1CCCC2`: 0.13.

A further data set can be described thus: method code SF-AS, from DOI: 10.1016/s0021-9673(01)88398-9. Conditions: pH 5.0.
Compound `Cc1cc(=O)n2c(n1)CCCC2C` (stereo not given) gave a logD of 0.67.
As for `Cc1cccc2nccc(=O)n12`, the logD amounted to 0.74.
Still for that read-out and setting: next, `CCc1c(C)nc2n(c1=O)C(C)CCC2` (stereo not given): 1.43; `CCc1c(C)nc2cccc(C)n2c1=O`: 1.86.
For the compound `CCCc1c(C)nc2cccc(C)n2c1=O`, the pH-dependent lipophilicity (logD) is 2.22.
Still for that read-out and setting: the figure for `Cc1cnc2cccc(C)n2c1=O` is 1.27.

These data come from the SangsterLogP compilation.
